ChEMBL document CHEMBL1201862, “PubChem BioAssay data set” (2004)
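Assay format: 96-well plates, 48-hour exposure. At the GI50, growth is halved.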 The source made the active and inactive calls. No stated cut-off is given here; in the data, active = GI50 up to about 1.1 µM and inactive = higher.

Tests used:
Assay in all cases: NCI anticancer screen, dose series, 48 h
SR = tested on: SR
NCI-H226 = tested on: NCI-H226
TK-10 = tested on: TK-10
EKVX = tested on: EKVX
DMS-273 = tested on: DMS-273
A549 = tested on: A549
IGROV-1 = tested on: IGROV-1
OVCAR-4 = tested on: OVCAR-4
LXFL 529 = tested on: LXFL 529
RXF 631 = tested on: RXF 631
K562 = tested on: K562
HL-60 = tested on: HL-60
SK-OV-3 = tested on: SK-OV-3
HCT-116 = tested on: HCT-116
KM12 = tested on: KM12
XF498 = tested on: XF498
SN12C = tested on: SN12C
HCT-15 = tested on: HCT-15
SNB-78 = tested on: SNB-78
SF-539 = tested on: SF-539
RPMI-8226 = tested on: RPMI-8226
SK-MEL-2 = tested on: SK-MEL-2
786-0 = tested on: 786-0
CAKI-1 = tested on: CAKI-1
A498 = tested on: A498
OVCAR-5 = tested on: OVCAR-5
SNB-19 = tested on: SNB-19
KM-20L2 = tested on: KM-20L2
UO-31 = tested on: UO-31
NCI-H522 = tested on: NCI-H522
DMS-114 = tested on: DMS-114
UACC-62 = tested on: UACC-62
M14 = tested on: M14
OVCAR-3 = tested on: OVCAR-3
M19-MEL = tested on: M19-MEL
COLO 205 = tested on: COLO 205
SNB-75 = tested on: SNB-75
DLD-1 = tested on: DLD-1
SK-MEL-5 = tested on: SK-MEL-5
MOLT-4 = tested on: MOLT-4
U-251 = tested on: U-251
HOP-18 = tested on: HOP-18
SK-MEL-28 = tested on: SK-MEL-28
SW-620 = tested on: SW-620
ACHN = tested on: ACHN
HT-29 = tested on: HT-29
HOP-62 = tested on: HOP-62
SF-268 = tested on: SF-268
LOX IMVI = tested on: LOX IMVI
NCI-H460 = tested on: NCI-H460
NCI-H23 = tested on: NCI-H23
HCC 2998 = tested on: HCC 2998
OVCAR-8 = tested on: OVCAR-8
HOP-92 = tested on: HOP-92
Malme-3M = tested on: Malme-3M
SF-295 = tested on: SF-295
UACC-257 = tested on: UACC-257
CCRF-CEM = tested on: CCRF-CEM

SMILES: O=C(CC(=O)N1N=C(c2ccccc2)C(/N=N/c2ccc(Cl)cc2)C1=O)Nc1ccccc1Cl (stereo not given)
- GI50 (SR): 24.7 µM (inactive)
- GI50 (NCI-H226): 19 µM (inactive)
- GI50 (TK-10): 16.6 µM (inactive)
- GI50 (EKVX): 27.6 µM (inactive)
- GI50 (DMS-273): 32.2 µM (inactive)
- GI50 (A549): 13.2 µM (inactive)
- GI50 (IGROV-1): 36.4 µM (inactive)
- GI50 (OVCAR-4): 16 µM (inactive)
- GI50 (LXFL 529): 26.7 µM (inactive)
- GI50 (RXF 631): 40.6 µM (inactive)
- GI50 (K562): 36.7 µM (inactive)
- GI50 (HL-60): 26.6 µM (inactive)
- GI50 (SK-OV-3): 18.8 µM (inactive)
- GI50 (HCT-116): 23.6 µM (inactive)
- GI50 (KM12): 33.8 µM (inactive)
- GI50 (XF498): 35.7 µM (inactive)
- GI50 (SN12C): 92 µM (inactive)
- GI50 (HCT-15): 51.2 µM
- GI50 (SNB-78): 64 µM (inactive)
- GI50 (SF-539): 24.4 µM (inactive)
- GI50 (RPMI-8226): 27.6 µM (inactive)
- GI50 (SK-MEL-2): 32.4 µM (inactive)
- GI50 (786-0): 12.2 µM (inactive)
- GI50 (CAKI-1): 19.5 µM (inactive)
- GI50 (A498): > 10 µM (inactive)
- GI50 (OVCAR-5): > 100 µM (inactive)
- GI50 (SNB-19): 21.2 µM (inactive)
- GI50 (KM-20L2): 80.9 µM (inactive)
- GI50 (UO-31): 22 µM (inactive)
- GI50 (NCI-H522): 30.3 µM (inactive)
- GI50 (DMS-114): 90.6 µM (inactive)
- GI50 (UACC-62): 21.6 µM (inactive)
- GI50 (M14): 28.1 µM (inactive)
- GI50 (OVCAR-3): 24.3 µM (inactive)
- GI50 (M19-MEL): 51.3 µM (inactive)
- GI50 (COLO 205): > 100 µM (inactive)
- GI50 (SNB-75): 16.4 µM (inactive)
- GI50 (DLD-1): 30.3 µM (inactive)
- GI50 (SK-MEL-5): 18.1 µM (inactive)
- GI50 (MOLT-4): 33 µM (inactive)
- GI50 (U-251): 24.5 µM (inactive)
- GI50 (HOP-18): 24.2 µM (inactive)
- GI50 (SK-MEL-28): 20.6 µM (inactive)
- GI50 (SW-620): 40.7 µM (inactive)
- GI50 (ACHN): 15.6 µM (inactive)
- GI50 (HT-29): 37.4 µM (inactive)
- GI50 (HOP-62): 20.1 µM (inactive)
- GI50 (SF-268): 22.5 µM (inactive)
- GI50 (LOX IMVI): 26.2 µM (inactive)
- GI50 (NCI-H460): 42.1 µM (inactive)
- GI50 (NCI-H23): 29.4 µM (inactive)
- GI50 (HCC 2998): 68.7 µM (inactive)

SMILES: N=C(N)n1ncc(Cl)c(Cl)c1=O
- GI50 (OVCAR-8): 2.15 µM (inactive)
- GI50 (NCI-H226): 5.25 µM (inactive)
- GI50 (TK-10): 19.4 µM (inactive)
- GI50 (EKVX): 2.36 µM (inactive)
- GI50 (DMS-273): 2.28 µM (inactive)
- GI50 (A549): 17.1 µM (inactive)
- GI50 (IGROV-1): 11.1 µM (inactive)
- GI50 (OVCAR-4): 1.91 µM (inactive)
- GI50 (LXFL 529): 1.8 µM (inactive)
- GI50 (RXF 631): 1.81 µM (inactive)
- GI50 (K562): 2.32 µM (inactive)
- GI50 (HL-60): 2.21 µM (inactive)
- GI50 (SK-OV-3): 17.9 µM (inactive)
- GI50 (HCT-116): 1.73 µM (inactive)
- GI50 (KM12): 6.5 µM (inactive)
- GI50 (XF498): 1.81 µM (inactive)
- GI50 (SN12C): 2.69 µM (inactive)
- GI50 (HCT-15): 1.87 µM
- GI50 (HOP-92): 2.43 µM (inactive)
- GI50 (SNB-78): 1.98 µM (inactive)
- GI50 (SF-539): 2.34 µM (inactive)
- GI50 (RPMI-8226): 2.28 µM (inactive)
- GI50 (SK-MEL-2): 2.47 µM (inactive)
- GI50 (786-0): 2.76 µM (inactive)
- GI50 (CAKI-1): 1.81 µM (inactive)
- GI50 (A498): 18.6 µM (inactive)
- GI50 (OVCAR-5): 15.2 µM (inactive)
- GI50 (SNB-19): 4.16 µM (inactive)
- GI50 (KM-20L2): 4.33 µM (inactive)
- GI50 (UO-31): 2.38 µM (inactive)
- GI50 (NCI-H522): 1.79 µM (inactive)
- GI50 (DMS-114): 1.85 µM (inactive)
- GI50 (UACC-62): 2.48 µM (inactive)
- GI50 (Malme-3M): 2.21 µM (inactive)
- GI50 (M14): 1.98 µM (inactive)
- GI50 (OVCAR-3): 1.91 µM (inactive)
- GI50 (SF-295): 10.8 µM (inactive)
- GI50 (M19-MEL): 1.69 µM (inactive)
- GI50 (UACC-257): 2.13 µM (inactive)
- GI50 (COLO 205): 1.88 µM (inactive)
- GI50 (SNB-75): 2.99 µM (inactive)
- GI50 (DLD-1): 2.38 µM (inactive)
- GI50 (CCRF-CEM): 2.15 µM (inactive)
- GI50 (SK-MEL-5): 4.39 µM (inactive)
- GI50 (MOLT-4): 2.02 µM (inactive)
- GI50 (U-251): 7.11 µM (inactive)
- GI50 (HOP-18): 1.38 µM (inactive)
- GI50 (SK-MEL-28): 2.32 µM (inactive)
- GI50 (SW-620): 1.88 µM (inactive)
- GI50 (ACHN): 3.81 µM (inactive)
- GI50 (SF-268): 3.11 µM (inactive)
- GI50 (NCI-H460): 5.97 µM (inactive)
- GI50 (NCI-H23): 2.45 µM (inactive)
